Results published in PubChem BioAssay (NCI).
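These data come from cells grown in 96-well plates and exposed to compound for 48 hours at five concentrations. Abbreviation: GI50, concentration required for 50% inhibition of growth. TGI: concentration producing complete growth inhibition.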

Experiments:
Test in all cases: inhibition of tumour cell growth, NCI panel, 48 h
MCF7 breast = test system: MCF7 breast
SF-539 CNS = test system: SF-539 CNS
RPMI-8226 leukemia = test system: RPMI-8226 leukemia
HCT-15 colon = test system: HCT-15 colon
CCRF-CEM leukemia = test system: CCRF-CEM leukemia
HOP-62 NSCLC = test system: HOP-62 NSCLC
MDA-MB-435 = test system: MDA-MB-435
MOLT-4 leukemia = test system: MOLT-4 leukemia
HOP-92 NSCLC = test system: HOP-92 NSCLC
M14 melanoma = test system: M14 melanoma
KM12 colon = test system: KM12 colon
OVCAR-3 ovarian = test system: OVCAR-3 ovarian
SF-295 CNS = test system: SF-295 CNS
IGROV1 ovarian = test system: IGROV1 ovarian
SNB-75 CNS = test system: SNB-75 CNS
HS 578T breast = test system: HS 578T breast
SW-620 colon = test system: SW-620 colon
A498 renal = test system: A498 renal
NCI-H460 lung = test system: NCI-H460 lung
HL-60(TB) leukemia = test system: HL-60(TB) leukemia
NCI-H23 lung = test system: NCI-H23 lung
SNB-19 CNS = test system: SNB-19 CNS
ACHN renal = test system: ACHN renal
MDA-MB-231 breast = test system: MDA-MB-231 breast
UACC-257 melanoma = test system: UACC-257 melanoma
CAKI-1 renal = test system: CAKI-1 renal
HT29 colon = test system: HT29 colon
LOX IMVI melanoma = test system: LOX IMVI melanoma
SK-MEL-28 melanoma = test system: SK-MEL-28 melanoma
SN12C renal = test system: SN12C renal
OVCAR-8 ovarian = test system: OVCAR-8 ovarian
NCI/ADR-RES ovarian = test system: NCI/ADR-RES ovarian
T-47D breast = test system: T-47D breast
OVCAR-5 ovarian = test system: OVCAR-5 ovarian
HCT-116 colon = test system: HCT-116 colon
UO-31 renal = test system: UO-31 renal
PC-3 prostate = test system: PC-3 prostate
COLO 205 colon = test system: COLO 205 colon
BT-549 breast = test system: BT-549 breast
SR leukemia = test system: SR leukemia
U251 CNS = test system: U251 CNS
SK-OV-3 ovarian = test system: SK-OV-3 ovarian
DU-145 prostate = test system: DU-145 prostate
A549 NSCLC = test system: A549 NSCLC
786-0 renal = test system: 786-0 renal
SF-268 CNS = test system: SF-268 CNS
NCI-H226 lung = test system: NCI-H226 lung
EKVX NSCLC = test system: EKVX NSCLC
SK-MEL-5 melanoma = test system: SK-MEL-5 melanoma
RXF 393 renal = test system: RXF 393 renal
UACC-62 melanoma = test system: UACC-62 melanoma
HCC-2998 colon = test system: HCC-2998 colon
MALME-3M melanoma = test system: MALME-3M melanoma
SK-MEL-2 melanoma = test system: SK-MEL-2 melanoma
NCI-H522 lung = test system: NCI-H522 lung
TK-10 renal = test system: TK-10 renal
K-562 leukemia = test system: K-562 leukemia
OVCAR-4 ovarian = test system: OVCAR-4 ovarian

## ClCCN1CCOC1=C1C=CC=C1
MCF7 breast
  TGI: > 100 µM
SF-539 CNS
  TGI: > 100 µM
RPMI-8226 leukemia
  TGI: > 100 µM
HCT-15 colon
  TGI: > 100 µM
CCRF-CEM leukemia
  TGI: > 100 µM
HOP-62 NSCLC
  TGI: > 100 µM
MDA-MB-435
  TGI: > 100 µM
MOLT-4 leukemia
  TGI: > 100 µM
HOP-92 NSCLC
  TGI: > 100 µM
M14 melanoma
  TGI: > 100 µM
KM12 colon
  TGI: > 100 µM
OVCAR-3 ovarian
  TGI: > 100 µM
SF-295 CNS
  TGI: > 100 µM
IGROV1 ovarian
  TGI: > 100 µM
SNB-75 CNS
  TGI: > 100 µM
HS 578T breast
  TGI: > 100 µM
SW-620 colon
  TGI: > 100 µM
A498 renal
  TGI: > 100 µM
NCI-H460 lung
  TGI: > 100 µM
HL-60(TB) leukemia
  TGI: > 100 µM
NCI-H23 lung
  TGI: > 100 µM
SNB-19 CNS
  TGI: > 100 µM
ACHN renal
  TGI: > 100 µM
MDA-MB-231 breast
  TGI: > 100 µM
UACC-257 melanoma
  TGI: > 100 µM
CAKI-1 renal
  TGI: > 100 µM
HT29 colon
  TGI: > 100 µM
LOX IMVI melanoma
  TGI: > 100 µM
SK-MEL-28 melanoma
  TGI: > 100 µM
SN12C renal
  TGI: > 100 µM
OVCAR-8 ovarian
  TGI: > 100 µM
NCI/ADR-RES ovarian
  TGI: > 100 µM
T-47D breast
  TGI: > 100 µM
OVCAR-5 ovarian
  TGI: > 100 µM
HCT-116 colon
  TGI: > 100 µM
UO-31 renal
  TGI: > 100 µM
PC-3 prostate
  TGI: > 100 µM
COLO 205 colon
  TGI: > 100 µM
BT-549 breast
  TGI: > 100 µM
SR leukemia
  TGI: 40.4 µM
U251 CNS
  TGI: > 100 µM
SK-OV-3 ovarian
  TGI: > 100 µM
DU-145 prostate
  TGI: > 100 µM
A549 NSCLC
  TGI: > 100 µM
786-0 renal
  TGI: > 100 µM
SF-268 CNS
  TGI: > 100 µM
NCI-H226 lung
  TGI: > 100 µM
EKVX NSCLC
  TGI: > 100 µM
SK-MEL-5 melanoma
  TGI: > 100 µM

## Oc1ccc(CCl)c2cccnc12
RXF 393 renal
  GI50: 32.9 µM
  TGI: > 100 µM
SF-539 CNS
  GI50: 14.5 µM
  TGI: > 100 µM
RPMI-8226 leukemia
  GI50: 4.25 µM
  TGI: > 100 µM
HCT-15 colon
  GI50: 3.8 µM
  TGI: > 100 µM
CCRF-CEM leukemia
  GI50: 4.1 µM
  TGI: > 100 µM
HOP-62 NSCLC
  GI50: 16 µM
  TGI: > 100 µM
MDA-MB-435
  GI50: 5.81 µM
  TGI: 95.3 µM
MOLT-4 leukemia
  GI50: 3.96 µM
  TGI: > 100 µM
HOP-92 NSCLC
  GI50: 14.5 µM
  TGI: 90 µM
UACC-62 melanoma
  GI50: 8.37 µM
  TGI: > 100 µM
M14 melanoma
  GI50: 3.2 µM
  TGI: > 100 µM
KM12 colon
  GI50: 11.3 µM
  TGI: > 100 µM
HCC-2998 colon
  GI50: 33.5 µM
  TGI: > 100 µM
OVCAR-3 ovarian
  GI50: 2.08 µM
  TGI: 5.5 µM
SF-295 CNS
  GI50: 3.72 µM
  TGI: 25.8 µM
MALME-3M melanoma
  GI50: 4.44 µM
  TGI: 36 µM
SNB-75 CNS
  GI50: 44 µM
  TGI: > 100 µM
HS 578T breast
  GI50: 6.94 µM
  TGI: 91.3 µM
SK-MEL-2 melanoma
  GI50: > 100 µM
  TGI: > 100 µM
SW-620 colon
  GI50: 4.12 µM
  TGI: > 100 µM
A498 renal
  GI50: 46.5 µM
  TGI: > 100 µM
NCI-H460 lung
  GI50: 3.95 µM
  TGI: 16 µM
HL-60(TB) leukemia
  GI50: 1.36 µM
  TGI: 17.7 µM
NCI-H23 lung
  GI50: 6.13 µM
  TGI: > 100 µM
SNB-19 CNS
  GI50: 22.9 µM
  TGI: > 100 µM
ACHN renal
  GI50: 6.88 µM
  TGI: > 100 µM
MDA-MB-231 breast
  GI50: 6.07 µM
  TGI: > 100 µM
UACC-257 melanoma
  GI50: 4.21 µM
  TGI: > 100 µM
CAKI-1 renal
  GI50: 5.91 µM
  TGI: 53.3 µM
HT29 colon
  GI50: 9.68 µM
  TGI: > 100 µM
LOX IMVI melanoma
  GI50: 4.9 µM
  TGI: > 100 µM
SK-MEL-28 melanoma
  GI50: 59 µM
  TGI: > 100 µM
SN12C renal
  GI50: 12.5 µM
  TGI: > 100 µM
OVCAR-8 ovarian
  GI50: 4.93 µM
  TGI: > 100 µM
NCI/ADR-RES ovarian
  GI50: 2.98 µM
  TGI: 28.9 µM
NCI-H522 lung
  GI50: 3.62 µM
  TGI: > 100 µM
T-47D breast
  GI50: 3.65 µM
  TGI: > 100 µM
OVCAR-5 ovarian
  GI50: 17.5 µM
  TGI: > 100 µM
HCT-116 colon
  GI50: 3.29 µM
  TGI: > 100 µM
UO-31 renal
  GI50: 2.9 µM
  TGI: > 100 µM
PC-3 prostate
  GI50: 12.3 µM
  TGI: > 100 µM
COLO 205 colon
  GI50: 7.05 µM
  TGI: > 100 µM
BT-549 breast
  GI50: 32.4 µM
  TGI: > 100 µM
SR leukemia
  GI50: 3.43 µM
  TGI: 53.6 µM
TK-10 renal
  GI50: > 100 µM
  TGI: > 100 µM
U251 CNS
  GI50: 7.7 µM
  TGI: > 100 µM
SK-OV-3 ovarian
  GI50: 43.8 µM
  TGI: > 100 µM
DU-145 prostate
  GI50: 15.7 µM
  TGI: > 100 µM
K-562 leukemia
  GI50: 3.39 µM
  TGI: > 100 µM
A549 NSCLC
  GI50: 14.3 µM
  TGI: > 100 µM
786-0 renal
  GI50: 37.7 µM
  TGI: > 100 µM
SF-268 CNS
  GI50: 6.84 µM
  TGI: > 100 µM
NCI-H226 lung
  GI50: 34.6 µM
  TGI: > 100 µM
OVCAR-4 ovarian
  GI50: 3.41 µM
  TGI: > 100 µM
EKVX NSCLC
  GI50: 3.21 µM
  TGI: 31.6 µM
SK-MEL-5 melanoma
  GI50: 12.4 µM
  TGI: 35.6 µM
